Data as given in patent publication US11384381B2, “Reaction accelerating agent” (Kikkoman Corporation, priority 2016, dated 2022).

Key:
[1] = tested on: sarcosine oxidase (SOD-TE); experiment: Sarcosine detection reaction completed with excess sarcosine oxidase (Example 10); format: biochemical; details: 0.04% (w/v) compound, 123 U/ml SOD-TE (excess), 32 μM sarcosine, pH 8.0, 37° C.; for ΔA9 min: change in A694-A751 9 minutes after mixing; for ΔA10 min: change in A694-A751 10 minutes after mixing, defined as ΔA100%
Method: In this Example, the amount of change in absorbance is determined when the detection reaction of the substrate sarcosine (N-methylglycine) was completed using an excess amount of sarcosine oxidase (SOD-TE), which is an oxidase.
A reagent for sarcosine measurement having the following composition was prepared, and the measurement of sarcosine using sarcosine oxidase was carried out using Bio Majesty JCA-BM 1650 (manufactured by JEOL Ltd.).
32 μM sarcosine (manufactured by Wako Pure Chemical Industries, Ltd.)
30 mM MOPS-NaOH buffer solution, pH 8.0
0.2% (v/v) NP-10 (manufactured by HELM)
(§1) 10 U/ml peroxidase PEO-301 (Toyobo Co., Ltd.)
(§2) 0.023 mM 10-(carboxymethylaminocarbonyl)-3,7-bis(dimethylamino)phenothiazine sodium (DA-67, manufactured by Wako Pure Chemical Industries, Ltd.)
(§3) 0.04% (w/v) of the compound of Comparative Example 2, any one compound of the present invention, or compound-free (Comparative Example 1) ion-exchange water as shown in Table 1
10 mM MOPS-NaOH buffer solution, pH 8.0
123 U/ml SOD-TE (manufactured by Kikkoman Biochemifa Company)
8 μl of the sample was added to 96 μl of the first reagent-D, and the mixture was incubated at 37° C. for 5 minutes. Then, 24 μl of the second reagent-G was added thereto, and the quantitative reaction of hydrogen peroxide resulting from the oxidation of sarcosine was allowed to progress at 37° C. for 5 minutes. The absorbance (A694 and A751) of the reaction solution for light at wavelengths of 694 nm and 751 nm was measured over time for 10 minutes after the mixing of the sample with the first reagent-D to determine the value of subtraction of A751 from A694, i.e., the value A694/751. Subsequently, ΔA was calculated by subtracting, from A694/751, the value of (104/128) times […] 4.8 minutes after the mixing of the sample with the first reagent-D. Incidentally, 4.8 minutes after the mixing of the sample with the first reagent-D represents the time immediately before the addition of the second reagent-G. ΔA 9 minutes and 10 minutes after the mixing of the diluted sample with the first reagent-D (ΔA9min and ΔA10min) are shown in Table 7.
(§4) In other words, it can be recognized that the quantitative reaction of sarcosine, i.e., the quantitative reaction of hydrogen peroxide resulting from the oxidation of sarcosine, was completed in 10 minutes after the mixing of the diluted sample with the first reagent-D. Accordingly, in Examples 10 and 11, ΔA10min in each Comparative Example or the present invention was defined as ΔA when 100% of the quantitative reaction of sarcosine progressed under each condition (ΔA100%).

[2] = tested on: cholesterol oxidase (CHO-CE); experiment: Cholesterol detection reaction completed with excess cholesterol oxidase (Example 12); format: biochemical; details: 0.04% (w/v) compound, 11.6 U/ml CHO-CE (excess), 32 μM cholesterol, pH 7.0, 37° C.; for ΔA9 min: change in A694-A751 9 minutes after mixing; for ΔA10 min: change in A694-A751 10 minutes after mixing, defined as ΔA100%
Method: In this Example the amount of change in absorbance is determined when the detection reaction for the substrate cholesterol was completed using an excess amount of cholesterol oxidase (CHO-CE), which is an oxidase.
A reagent for cholesterol measurement having the following composition was prepared, and the measurement of cholesterol using cholesterol oxidase was carried out using Bio Majesty JCA-BM 1650 (manufactured by JEOL Ltd.).
32 μM cholesterol (manufactured by Wako Pure Chemical Industries, Ltd.)
5.0% (v/v) Triton X-100 (manufactured by Wako Pure Chemical Industries, Ltd.)
4.0% (w/v) sodium cholate (manufactured by Wako Pure Chemical Industries, Ltd.)
30 mM MOPS-NaOH buffer solution, pH 7.0
as §1, §2, §3
10 mM MOPS-NaOH buffer solution, pH 7.0
11.6 U/ml CHO-CE (manufactured by Kikkoman Biochemifa Company)
8 μl of the sample was added to 96 μl of the first reagent-E, and the mixture was incubated at 37° C. for 5 minutes. Then, 24 μl of the second reagent-I was added thereto, and the quantitative reaction of hydrogen peroxide resulting from the oxidation of cholesterol was allowed to progress at 37° C. for 5 minutes. The absorbance (A694 and A751) of the reaction solution for light at wavelengths of 694 nm and 751 nm was measured over time for 10 minutes after the mixing of the sample with the first reagent-E to determine the value of subtraction of A751 from A694, i.e., the value A694/751. Subsequently, ΔA was calculated by subtracting, from A694/751, the value of (104/128) times A694/751 4.8 minutes after the mixing of the sample with the first reagent-E. Incidentally, 4.8 minutes after the mixing of the sample with the first reagent-E represents the time immediately before the addition of the second reagent-I. ΔA 9 minutes and 10 minutes after the mixing of the diluted sample with the first reagent-E (ΔA9min and ΔA10min) are shown in Table 9.
as §4, with “of cholesterol,” for “of sarcosine,”, “first reagent-E.” for “first reagent-D.”, “Examples 12” for “Examples 10”, “and 13,” for “and 11,”, “of cholesterol” for “of sarcosine”

Row | Compound | ΔA9 min [1] | ΔA10 min [1] | ΔA9 min [2] | ΔA10 min [2]
1 | COc1cc(N=Nc2cccc(S(=O)(=O)[O-])c2)ccc1NC(=O)Nc1ccc(N=Nc2ccc(O)c(C(=O)[O-])c2)cc1.[Na+].[Na+] [Direct Yellow 44] | 0.315 | 0.315 |  | 
2 | COc1cc(N=Nc2ccc(N)cc2)c(C)cc1N [Disperse Diazo Black 3BF] | 0.156 | 0.156 | 0.028 | 0.032
3 | Xylene Fast Yellow 2G | 0.158 | 0.158 |  | 
4 | O=C([O-])c1cc(N=Nc2cccc([N+](=O)[O-])c2)ccc1O.[Na+] [Alizarin Yellow GG] | 0.197 | 0.197 | 0.039 | 0.039
5 | O=C(O)c1cc(N=Nc2ccc3cc(S(=O)(=O)O)ccc3c2)ccc1O.[Na] [Chrome Yellow] | 0.186 | 0.186 | 0.071 | 0.072
6 | Acid Red 151 | 0.212 | 0.212 | 0.036 | 0.036
7 | O=C([O-])c1cc(N=Nc2ccc([N+](=O)[O-])cc2)ccc1O.[Na+] [Mordant Orange 1] | 0.327 | 0.328 | 0.041 | 0.041
8 | O=S(=O)([O-])c1cccc(N=Nc2ccc(Nc3ccccc3)cc2)c1.[Na+] [Acid Yellow 36] |  |  | 0.033 | 0.033
9 | Cc1nn(-c2cc(S(=O)(=O)[O-])ccc2Cl)c(O)c1N=Nc1ccccc1.[Na+] [Acid Yellow 34] |  |  | 0.033 | 0.033
